Laboratory results taken from patent US6815546B2, “Analogues of camptothecin, their use as medicaments and the pharmaceutical compositions containing them” (Societe de Recherches et d'Applications Scientifiques …, priority 1995, dated 2004).

What was measured:
Assay type in all cases: cell-based
[1] = system: A549 (human lung carcinoma); experiment: Test on cell proliferation (MTT test), A549; details: 72 hours
Procedure: (§1) a. Eight tumoral cell lines are used in this study: L1210 (mouse lymphocytic leukemia), HCT15 and LOVO (cell lines of human colon adenocarcinoma), A549 (human lung carcinoma), A172, U373 et U87 (human glioblastoma). All these lines are obtained from the American Type Culture Collection (ATCC), Rockville, Md. The L1210 cell cultures in suspension are cultured in Dulbecco's modified Eagle's medium (DMEM) (BioWhitaker, Verviers, Belgium) together with 10% of foetal calf serum inactivated by heating, 2 mM of glutamine, 50 μg/ml of penicillin and 50 μg/ml of streptomycin. The HT29 cells are cultured in mono-layer cultures in a McCoy 5a medium (Gibco, Paisley, United Kingdom) together with 10% of foetal calf serum inactivated by heat plus 2 mM of glutamine and 50 μg/ml of gentamycin. The other cells are cultured in an Earle's modified essential medium (EMEM; Gibco, Paisley, United Kingdom) together with 5% foetal calf serum inactivated by heat, 2 mM of glutamine, 50 U/ml of penicillin and 50 μg/ml of streptomycin. All the cell lines are cultured at 37° C. in a humidified atmosphere containing 95% air and 5% CO2.
(§2) Inhibition of the tumor cell line proliferation is determined using an MTT test. 1500 L1210 cells in a culture medium (according to the needs of the cell medium) are seeded in a well of a micro-well plate (tissue culture level: 96 wells, flat bottom) 24 hours before treatment with the compounds to be tested. For these dose-response studies, the cells are incubated with each of the compounds to be tested or their corresponding solvent (controls) for 48 hours over a final concentration range of 1.10^−10 to 1.10^−4 M. All the compounds are dissolved just before use in dimethylsulphoxide (DMSO) at a concentration of 50 mM. Other dilutions of the medicaments are carried out in the culture medium. The final concentration of DMSO never exceeds 0.2% (v/v). As controls, the solutions of medicaments are replaced with the solvent which is diluted successively in the same way as the compounds to be tested.
(§3) After the incubation period, the labeling reagent MTT (3-[4,5-dimethylthiazol-2-yl]-2,5-diphenyltetrazolium bromide; Thiazol blue, Sigma M 565, Sigma, St Louis, Mo.) is added at a final concentration of 0.3 mg/ml to each well. The cells are incubated for 4 hours at 37° C. in a humidified atmosphere. This stage allows the mitochondrial dehydrogenase of the living cells to convert the yellow tetrazolium salt MTT into crimson formazan crystals. The supernatant part is eliminated and the formazan crystals formed are solubilized with DMSO. The resultant coloured solution is quantified by absorbance at 570 nm by using a multi-cuvette scanning spectrophotometer. The data concerning the proliferation is expressed as a percentage of living cells in the treated wells, divided by the living cells in the controls. Each point represents the average of three independent experiments, each experiment represents six determinations.
(§4) For the other cell lines (HCT15, LOVO, A549, A172, U373, U87), 1000 to 2000 cells are seeded in the well of a micro-well plate 24 hours before medicinal treatment. […]
(§5) The results are expressed as percentages of the calculated proliferation by the optical density (OD) of the cells treated with a medicament divided by the OD of the control cells (cells treated with DMSO). As represented in Table II, the compounds to be tested have inhibited the proliferation of cells in a dose-dependent manner.

[2] = system: L1210 (mouse lymphocytic leukemia); experiment: Test on cell proliferation (MTT test), L1210; details: 48 hours
Procedure: as §1, §2, §3, §5

[3] = system: U373 (human glioblastoma); experiment: Test on cell proliferation (MTT test), U373; details: 72 hours
Procedure: as §1, §2, §3, §4, §5

[4] = system: A172 (human glioblastoma); experiment: Test on cell proliferation (MTT test), A172; details: 72 hours
Procedure: as §1, §2, §3, §4, §5

U87 (human glioblastoma) = experiment: Test on cell proliferation (MTT test), U87; details: 72 hours
Procedure: as §1, §2, §3, §4, §5

| Compound | PERCENTAGE OF CELL PROLIFERATION ([1]; 0.1 nM) | PERCENTAGE OF CELL PROLIFERATION ([1]; 1 nM) | PERCENTAGE OF CELL PROLIFERATION ([1]; 10 nM) | PERCENTAGE OF CELL PROLIFERATION ([1]; 100 nM) | PERCENTAGE OF CELL PROLIFERATION ([1]; 1 000 nM) | PERCENTAGE OF CELL PROLIFERATION ([1]; 10 000 nM) | PERCENTAGE OF CELL PROLIFERATION ([1]; 100 000 nM) | PERCENTAGE OF CELL PROLIFERATION ([2]; 0.1 nM) | PERCENTAGE OF CELL PROLIFERATION ([2]; 1 nM) | PERCENTAGE OF CELL PROLIFERATION ([2]; 10 nM) | PERCENTAGE OF CELL PROLIFERATION ([2]; 100 nM) | PERCENTAGE OF CELL PROLIFERATION ([2]; 1 000 nM) | PERCENTAGE OF CELL PROLIFERATION ([2]; 10 000 nM) | PERCENTAGE OF CELL PROLIFERATION ([2]; 100 000 nM) | PERCENTAGE OF CELL PROLIFERATION ([3]; 0.1 nM) | PERCENTAGE OF CELL PROLIFERATION ([3]; 1 nM) | PERCENTAGE OF CELL PROLIFERATION ([3]; 10 nM) | PERCENTAGE OF CELL PROLIFERATION ([3]; 100 nM) | PERCENTAGE OF CELL PROLIFERATION ([3]; 1 000 nM) | PERCENTAGE OF CELL PROLIFERATION ([3]; 10 000 nM) | further results |
| --- | --- | --- | --- | --- | --- | --- | --- | --- | --- | --- | --- | --- | --- | --- | --- | --- | --- | --- | --- | --- | --- |
| CCC1(O)CC(=O)OCc2c1cc1n(c2=O)Cc2cc3cc4c(cc3nc2-1)OCCO4 (stereo not shown) [Example 11, 8-ethyl-8-hydroxy-2,3,8,9,12,15-hexahydro-10H,13H-[1,4]dioxino [2,3-g]oxepino[3′,4′:6,7]indolizino[1,2-b]quinoline-10,13-dione] | 82.00% | 44.00% | 29.00% | 26.00% | 4.00% | 3.00% | 2.00% | 91.99% | 81.37% | 23.16% | 16.83% | 5.59% | 1.45% | 1.04% | 50.00% | 30.00% | 25.00% | 8.00% | 2.00% | 1.00% | PERCENTAGE OF CELL PROLIFERATION ([3]; 100 000 nM): 2.00%; PERCENTAGE OF CELL PROLIFERATION ([4]; 0.1 nM): 95.00%; PERCENTAGE OF CELL PROLIFERATION ([4]; 1 nM): 53.00%; PERCENTAGE OF CELL PROLIFERATION ([4]; 10 nM): 47.00%; PERCENTAGE OF CELL PROLIFERATION ([4]; 100 nM): 39.00%; PERCENTAGE OF CELL PROLIFERATION ([4]; 1 000 nM): 12.00%; PERCENTAGE OF CELL PROLIFERATION ([4]; 10 000 nM): 3.00%; PERCENTAGE OF CELL PROLIFERATION ([4]; 100 000 nM): 2.00%; PERCENTAGE OF CELL PROLIFERATION (U87 (human glioblastoma); 0.1 nM): 40.00%; PERCENTAGE OF CELL PROLIFERATION (U87 (human glioblastoma); 1 nM): 21.00%; PERCENTAGE OF CELL PROLIFERATION (U87 (human glioblastoma); 10 nM): 12.00%; PERCENTAGE OF CELL PROLIFERATION (U87 (human glioblastoma); 100 nM): 6.00%; PERCENTAGE OF CELL PROLIFERATION (U87 (human glioblastoma); 1 000 nM): 1.00%; PERCENTAGE OF CELL PROLIFERATION (U87 (human glioblastoma); 10 000 nM): 1.00%; PERCENTAGE OF CELL PROLIFERATION (U87 (human glioblastoma); 100 000 nM): 1.00% |
| CCC(O)(CC(=O)O)c1cc2n(c(=O)c1CO)Cc1cc3ccccc3nc1-2 (stereo not shown) [Example 4, 3-hydroxy-3-[8-(hydroxymethyl)-9-oxo-9,11-dihydroindolizino [1,2-b]quinolin-7-yl]pentanoic acid] | 71.00% | 76.00% | 71.00% | 56.00% | 36.00% | 22.00% | 12.00% | 92.14% | 97.14% | 91.08% | 86.28% | 46.79% | 27.80% | 8.09% | 86.00% | 85.00% | 89.00% | 63.00% | 30.00% | 16.00% | PERCENTAGE OF CELL PROLIFERATION ([3]; 100 000 nM): 2.00%; PERCENTAGE OF CELL PROLIFERATION ([4]; 0.1 nM): 93.00%; PERCENTAGE OF CELL PROLIFERATION ([4]; 1 nM): 92.00%; PERCENTAGE OF CELL PROLIFERATION ([4]; 10 nM): 98.00%; PERCENTAGE OF CELL PROLIFERATION ([4]; 100 nM): 97.00%; PERCENTAGE OF CELL PROLIFERATION ([4]; 1 000 nM): 44.00%; PERCENTAGE OF CELL PROLIFERATION ([4]; 10 000 nM): 31.00%; PERCENTAGE OF CELL PROLIFERATION ([4]; 100 000 nM): 10.00%; PERCENTAGE OF CELL PROLIFERATION (U87 (human glioblastoma); 0.1 nM): 98.00%; PERCENTAGE OF CELL PROLIFERATION (U87 (human glioblastoma); 1 nM): 101.00%; PERCENTAGE OF CELL PROLIFERATION (U87 (human glioblastoma); 10 nM): 98.00%; PERCENTAGE OF CELL PROLIFERATION (U87 (human glioblastoma); 100 nM): 74.00%; PERCENTAGE OF CELL PROLIFERATION (U87 (human glioblastoma); 1 000 nM): 11.00%; PERCENTAGE OF CELL PROLIFERATION (U87 (human glioblastoma); 10 000 nM): 6.00%; PERCENTAGE OF CELL PROLIFERATION (U87 (human glioblastoma); 100 000 nM): 2.00% |
